Source: patent EP2653477B1, “SCORPION ACTIVE PEPTIDES AND PREPARATION METHODS AND APPLICATIONS THEREOF” (Wuhan More Biotechnology Co., Ltd., priority 2010, dated 2012)
Bridge positions count the residues as written; N and C are the ends. Peptide text beside a SMILES is read from it.

Assays:
[1] = biological target: T1, potassium channel Kv1.3 (Homo sapiens, UniProt P22001); test: whole-cell patch clamp, inhibition of Kv1.3 current in transfected COS-7 cells; assay type: cell-based; conditions: potassium channel Kv1.3 in COS-7 cells, read-out: polypeptide concentrations that inhibit the current by half (IC50 value)
T1 construct: expressed in transfected cells; host or cells: COS-7 cells, selected with 0.8 mg/mL geneticin
Description: COS-7 cells were cultured in a DMEM medium containing 10% fetal calf serum, at 37° C, 5% CO2. The recombinant plasmids of potassium channel Kv1.3 were transfected by using a Sofast™ transfection kit, and the transfected cells were selectively cultured in a medium containing 0.8 mg/mL geneticin. The pharmacological activities of scorpion active polypeptides ADMR-011, ADMR-016, ADMR-019, ADMR-023 and ADMR-028 were tested and analyzed by using an instrument of whole-cell patch clamp (EPC-10 dual-channel patch clamp amplifier HEKA, Elektronik, Lambrecht, Germany). The setting of the experimental parameters, the collecting of data, and the applying of stimulus were all controlled by Pulse software (Elektronik, Lambrecht, Germany). The filter of the instrument was set to be 10 kHz (Bessel), and the electrode impedance was 2∼5 MΩ. After the formation of giga-seal (1∼5 GΩ) between the electrode and cell membrane, an automatic c-fast was performed, and the membrane was broken by slightly applying negative pressure, then an automatic c-slow was performed. At a holding potential of -70 mV, depolarizing pulses, incrementing in 10 mV steps, with a step width of 80 ms , were given to stimulate from -60 mV to +50 mV, and the condition of current was observed. The polypeptides ADMR-011, ADMR-016 and ADMR-019 were accurately perfused, which was achieved by MPS-2 (INBIO Inc, Wuhan, China) perfusing system. After dissolving the three scorpion active polypeptides, they were applied by spraying via DAD Drug Application System (ALA), and the tip of the tube for drug application was about 100 µm away from the cell being recorded.
It can be known from Figure 16 to Figure 20 that, the pharmacological activity of ADMR-011 on potassium channel Kvl.3 was 91 pM, the pharmacological activity of ADMR-016 on potassium channel Kvl.3 was 2.58 nM, the pharmacological activity of ADMR-019 on potassium channel Kv1.3 was 1.41 nM, and the pharmacological activity of ADMR-023 and ADMR-028 on potassium channel Kvl.3 were 0.49 nM and 0.65 nM, respectively. Therefore, they are polypeptides with potent activity that are currently found internationally.

[2] = test system: Wistar rat EAE model; test: EAE (multiple sclerosis) model in Wistar rats induced by GPSCH-CFA, clinical scoring; assay type: in vivo; conditions: 100 µg·kg^-1 subcutaneously once every day, x±s, n=10, score 0-5
From the text: Experimental animals: female inbred line Wistar rats (6∼8 week old, body weigh 150±10 g) and guinea pigs (300∼400 g, purchased from Wuhan University Laboratory Animal Center) were selected.
Formulating a mixed emulsion of whole spinal cord homogenate - Freund's complete adjuvant (GPSCH-CFA): a guinea pig was executed, and the spinal cord was rapidly removed, and prepared into 50% PBS homogenate by a ultrasonic disruptor (Sonics & Materials Inc, America), which was mixed with equal amount of Freund's complete adjuvant (BCG vaccine 10 mg/ml), and was pushed back and forth with syringes until forming a water-in-oil emulsion.
Wistar rat EAE model induced by EAE: GPSCH-CFA emulsion was injected intradermally into the foot pads of both the hind legs of Wistar rats, or simultaneously injected intradermally about 1×10^10 pertussis vaccine. The rats were weighed every day, and observed for their neurological symptoms. Experimental autoimmune encephalomyelitis appeared after the rats had been raised for 2 weeks.
The rats with experimental autoimmune encephalomyelitis (EAE) were divided into […] groups randomly: normal control group (negative control group), model control group (model rats + normal saline), administration group A (model rats + ADMR-011 polypeptide), administration group B (model rats + ADMR-016 polypeptide), administration group C (model rats + ADMR-019 polypeptide), administration group D (model rats + ADMR-023 polypeptide), and administration group E (model rats + ADMR-028 polypeptide), 10 rats for each group. For the administration groups, polypeptides ADMR-011, ADMR-016, ADMR-019, ADMR-023 and ADMR-028 were injected subcutaneously respectively at a dose of 100 µg·kg^-1, once every day in the morning. For the normal control group and the model control group, equivalent amount of normal saline was injected subcutaneously, and administered continuously. […] The highest clinical score for each animal was recorded, and the average value of them was taken to be the average clinical score.
The scoring criteria were: without any clinical symptom, 0 point; disappearance of tension in the tail, and observable mild awkward gait, 1 point; weakness in both the hind limbs, which can recover after passive body flipping, 2 points; paralysis in both the hind limbs, which can not recover after passive body flipping, 3 points; tetraplegia accompanied by incontinence of urine and feces, 4 points; moribund state or death, 5 points. Table 1. Scores for rats of various experimental groups in the EAE model (-x±s)

[3] = test system: rheumatoid arthritis; test: pristane-induced rheumatoid arthritis in SD rats, joint score and hind foot plantar swelling; assay type: in vivo; design: key to Score of joint: clinical score 1-4: 1 joint red/swollen=1 ... severe whole-limb arthritis=4; conditions: x±s, n=10; for Score of joint: arthritis rats, polypeptides 100 µg·kg^-1 (methotrexate 1.75 µg·kg^-1) subcutaneously once every day, score 1-4; for The swelling degree after the inflammation: volume difference of hind foot before and after the modeling
Description: […] Female (♀) specific pathogen free (SPF) inbred line SD rats (Wuhan University Laboratory Animal Center), body weight 150±10 g, were selected, and pristane was injected intradermally at the base of the tail of rats in experimental groups at a dose of 0.2 ml/rat, after they were acclimatized in a clean-grade environment for 1 week. Rheumatoid arthritis appeared after the rats were raised for only 2 weeks.
The rats having arthritis were randomized into: normal control group (negative control group), model negative control group (model rat + normal saline), model positive control group (model rat + methotrexate), administration group A (model rat + ADMR-011 polypeptide), administration group B (model rat + ADMR-016 polypeptide), administration group C (model rat + ADMR-019 polypeptide), administration group D (model rat + ADMR-023 polypeptide), and administration group E (model rat + ADMR-028 polypeptide), 10 rats for each group. The administration groups were injected subcutaneously at a dose of 100 µg·kg^-1, once every day in the morning, and administered continuously; the normal control group and the model negative control group were injected subcutaneously with equivalent amount of normal saline; and the model positive control group were injected subcutaneously with methotrexate (MTX) at a dose of 1.75 µg·kg^-1, once every day, and administered continuously.
The highest clinical score for each animal was recorded, and the average value of them was taken to be the average clinical score. The scoring criteria were: one joint of a rat was red and swollen, 1 point; two joints of a rat were red and swollen, 2 points; all the joints of a rat were red and swollen, 3 points; severe arthritis in the entire limb of a rat, 4 points. Table 2. Arthritis scores for rats of various experimental groups (-x±s)
From day 8 of the experiment, the hind foot plantar volume of the rat was measured and recorded every other day for 21 consecutive days, and the swelling degree (mL) was calculated according to the volume difference before and after the modeling. Table 3. The swelling degree of rats in various experimental groups (-x±s)

[4] = test system: Kunming mice; test: toxicity study in mice, single intraperitoneal injection, 7 days observation; assay type: in vivo; conditions: 10 mg/kg intraperitoneally once (100 times the dose for animal model), observed 7 days
Description: 18∼20 g Kunming mice were selected, and divided into 4 groups, 8 male mice and 8 female mice for each group. The lyophilized powders of scorpion active polypeptides ADMR-011, ADMR-016, ADMR-019, ADMR-023 and ADMR-028 were dissolved with normal saline respectively, and the 3 groups of mice were injected intraperitoneally once respectively with polypeptide solution at a dose of 10 mg/kg (100 times of the dose for animal model), and the fourth group were injected with equivalent amount of normal saline as control.
After the administration, the respiration, motor and heartbeat in animals of all the groups were all normal, without significant abnormal reaction. 7 days after the administration, all the animals were conducted gross anatomy to observe the volume, color and texture of the main organs (heart, liver, spleen, lung, and kidney), and there was no macroscopic lesion. There were no significant difference between the 3 administration groups and the normal saline group.

T1 sequence (P22001 whole entry): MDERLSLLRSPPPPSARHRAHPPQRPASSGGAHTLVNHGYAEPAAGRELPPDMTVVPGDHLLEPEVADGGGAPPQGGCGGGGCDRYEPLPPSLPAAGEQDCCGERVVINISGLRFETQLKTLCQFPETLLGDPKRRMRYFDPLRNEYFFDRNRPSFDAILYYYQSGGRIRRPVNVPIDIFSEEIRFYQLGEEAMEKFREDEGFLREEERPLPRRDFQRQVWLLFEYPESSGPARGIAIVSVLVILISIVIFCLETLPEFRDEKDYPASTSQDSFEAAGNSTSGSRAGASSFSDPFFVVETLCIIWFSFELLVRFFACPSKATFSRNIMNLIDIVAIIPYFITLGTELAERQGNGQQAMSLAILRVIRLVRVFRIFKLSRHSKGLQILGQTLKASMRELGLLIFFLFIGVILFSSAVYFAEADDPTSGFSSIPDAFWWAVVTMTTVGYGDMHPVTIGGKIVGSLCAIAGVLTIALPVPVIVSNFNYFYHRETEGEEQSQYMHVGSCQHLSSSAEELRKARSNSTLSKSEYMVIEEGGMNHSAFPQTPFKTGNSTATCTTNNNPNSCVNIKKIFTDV

**Q.** `CC[C@H](C)[C@@H]1NC(=O)CNC(=O)[C@H](CCC(=O)O)NC(=O)[C@@H]2CSSC[C@@H](C(=O)N[C@@H](Cc3ccc(O)cc3)C(=O)N[C@@H](CCCNC(=N)N)C(=O)O)NC(=O)[C@H](C(C)C)NC(=O)[C@@H]3CSSC[C@H](NC(=O)[C@H](CCC(=O)O)NC(=O)[C@H](CO)NC(=O)[C@H](CO)NC(=O)CNC(=O)[C@H](CC(N)=O)NC(=O)[C@@H](NC(=O)[C@H](CCC(=O)O)NC(=O)[C@H](CCCCN)NC(=O)[C@H](CO)NC(=O)[C@@H](NC(=O)[C@H](Cc4ccc(O)cc4)NC(=O)[C@@H](NC(=O)[C@@H](N)CCC(N)=O)[C@@H](C)CC)[C@@H](C)O)CSSC[C@H](NC(=O)[C@H](CCCCN)NC(=O)CNC(=O)[C@H](CO)NC(=O)[C@H](CCCNC(=N)N)NC(=O)[C@H](CCCCN)NC(=O)CNC(=O)[C@H]([C@@H](C)O)NC1=O)C(=O)N[C@@H]([C@@H](C)CC)C(=O)N[C@@H](CC(N)=O)C(=O)N[C@@H](CCCCN)C(=O)N[C@@H](CCCCN)C(=O)N3)C(=O)N[C@@H](Cc1ccc(O)cc1)C(=O)N[C@@H](CO)C(=O)N[C@@H](Cc1c[nH]cn1)C(=O)N2` [ADMR-011] (H-QIYTSKECNGSSECYSHCEGITGKRSGKCINKKCVCYR-OH; disulfide 8-29, 14-34, 18-36 (inferred); N-terminus and C-terminus assumed) was tested. Which IC50 [1] did it give?
**A.** 0.091 nM

**Q.** And the Average clinical scores ([2]; 8 d)?
**A.** 0.47±0.18

**Q.** And the Average clinical scores ([2]; 10 d)?
**A.** 0.75±0.21

**Q.** What about the Average clinical scores ([2]; 12 d) of the same compound?
**A.** 0.83±0.35

**Q.** What about the Average clinical scores ([2]; 14 d) of the same compound?
**A.** 0.95±0.37

**Q.** What about the Score of joint ([3]; 10 d) of the same compound?
**A.** 1.63±0.57

**Q.** What about the Score of joint ([3]; 15 d) of the same compound?
**A.** 2.07±0.65

**Q.** What about the Score of joint ([3]; 21 d) of the same compound?
**A.** 1.62±0.59

**Q.** What about the “The swelling degree after the inflammation” value (shortened to “The swelling degree”) ([3]; d8) of the same compound?
**A.** 0.041 ± 0.012 mL

**Q.** What about the “The swelling degree” value ([3]; d15) of the same compound?
**A.** 0.21 ± 0.06 mL

**Q.** And the “The swelling degree” value ([3]; d22)?
**A.** 0.29 ± 0.09 mL

**Q.** What about the “The swelling degree” value ([3]; d28) of the same compound?
**A.** 0.24 ± 0.13 mL

**Q.** What about the toxicity in mice [4] of the same compound?
**A.** no significant toxicity
